Legend:
Assay in all cases: relative viability (nuclei count vs DMSO), 5 days (fraction); higher = more cells survive
Irinotecan + Pictilisib = compound: CCc1c2c(nc3ccc(OC(=O)N4CCC(N5CCCCC5)CC4)cc13)-c1cc3c(c(=O)n1C2)COC(=O)[C@]3(O)CC [Irinotecan] + CS(=O)(=O)N1CCN(Cc2cc3nc(-c4cccc5[nH]ncc45)nc(N4CCOCC4)c3s2)CC1 [Pictilisib] (partner 1 µM)
In short: (§1)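 Values are medians from duplicate plates. Each reflects relative viability, defined as the nuclei count of treated wells over that of vehicle wells. Lung cancer cell lines in 1536-well plates were pin-tool dosed one day after seeding with one drug alone or with a fixed anchor-drug dose plus five library-drug doses (not always all listed) in √10 steps, then fixed, stained and imaged at 4× after 5 days.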

MK-8033 + Pemetrexed = compound: Cn1cc(-c2cnc3ccc4ccc(CS(=O)(=O)NCc5ccccn5)cc4c(=O)c3c2)cn1 [MK-8033] + Nc1nc2[nH]cc(CCc3ccc(C(=O)N[C@@H](CCC(=O)O)C(=O)O)cc3)c2c(=O)[nH]1 [Pemetrexed] (partner 0.2 µM)
In short: as §1

Irinotecan + Linsitinib = compound: CCc1c2c(nc3ccc(OC(=O)N4CCC(N5CCCCC5)CC4)cc13)-c1cc3c(c(=O)n1C2)COC(=O)[C@]3(O)CC [Irinotecan] + C[C@]1(O)C[C@@H](c2nc(-c3ccc4ccc(-c5ccccc5)nc4c3)c3c(N)nccn32)C1 [Linsitinib] (partner 1 µM)
In short: as §1

MK-8033 + Palbociclib = compound: Cn1cc(-c2cnc3ccc4ccc(CS(=O)(=O)NCc5ccccn5)cc4c(=O)c3c2)cn1 [MK-8033] + CC(=O)c1c(C)c2cnc(Nc3ccc(N4CCNCC4)cn3)nc2n(C2CCCC2)c1=O [Palbociclib] (partner 0.5 µM)
In short: as §1

Row | Cell Line | relative viability (Irinotecan + Pictilisib; first compound 0.6325 µM) | relative viability (Irinotecan + Pictilisib; first compound 2 µM) | relative viability (Irinotecan + Pictilisib; first compound 6.325 µM) | relative viability (Irinotecan + Pictilisib; first compound 20 µM) | relative viability (MK-8033 + Pemetrexed; first compound 0.02 µM) | relative viability (MK-8033 + Pemetrexed; first compound 0.06325 µM) | relative viability (MK-8033 + Pemetrexed; first compound 0.2 µM) | relative viability (MK-8033 + Pemetrexed; first compound 0.6325 µM) | relative viability (MK-8033 + Pemetrexed; first compound 2 µM) | relative viability (Irinotecan + Linsitinib; first compound 0.6325 µM) | relative viability (Irinotecan + Linsitinib; first compound 2 µM) | relative viability (Irinotecan + Linsitinib; first compound 6.325 µM) | relative viability (Irinotecan + Linsitinib; first compound 20 µM) | relative viability (MK-8033 + Palbociclib; first compound 0.02 µM) | relative viability (MK-8033 + Palbociclib; first compound 0.06325 µM) | relative viability (MK-8033 + Palbociclib; first compound 0.2 µM) | relative viability (MK-8033 + Palbociclib; first compound 0.6325 µM) | relative viability (MK-8033 + Palbociclib; first compound 2 µM)
1 | NCI-H520 | 0.225 | 0.324 | 0.201 | 0.152 | 0.625 | 0.697 | 0.607 | 0.652 | 0.602 | 0.821 | 0.737 | 0.302 | 0.212 | 0.209 | 0.231 | 0.184 | 0.254 | 0.205
2 | NCI-H1734 | 0.298 | 0.446 | 0.16 | 0.184 | 0.423 | 0.403 | 0.393 | 0.398 | 0.431 | 0.797 | 0.355 | 0.155 | 0.195 | 0.349 | 0.309 | 0.342 | 0.331 | 0.371
3 | NCI-H1975 | 0.339 | 0.316 | 0.204 | 0.154 | 0.263 | 0.259 | 0.276 | 0.281 | 0.288 | 1.1 | 0.803 | 0.326 | 0.204 | 0.579 | 0.469 | 0.51 | 0.339 | 0.602
4 | NCI-H1437 | 0.366 | 0.322 | 0.184 | 0.115 | 0.295 | 0.281 | 0.308 | 0.319 | 0.308 | 0.61 | 0.593 | 0.28 | 0.142 | 0.275 | 0.317 | 0.323 | 0.303 | 0.3
5 | A-427 |  | 0.392 | 0.19 | 0.225 | 0.936 | 0.976 | 0.941 | 0.946 | 1.05 |  | 0.231 | 0.221 | 0.198 | 0.481 | 0.552 | 0.494 | 0.508 | 0.492
6 | NCI-H2405 |  | 0.477 | 0.326 | 0.132 | 1.04 | 1.01 | 0.963 | 1.06 | 1.11 |  | 0.763 | 0.294 | 0.18 | 0.515 | 0.505 | 0.512 | 0.514 | 0.555
7 | SK-MES-1 | 0.336 | 0.319 | 0.254 | 0.257 | 0.986 | 0.949 | 0.904 | 0.892 | 0.853 | 0.997 | 0.646 | 0.315 | 0.281 | 0.333 | 0.299 | 0.305 | 0.359 | 0.309
8 | LC-2-ad | 0.146 | 0.315 | 0.231 | 0.116 | 0.298 | 0.273 | 0.264 | 0.268 | 0.276 | 0.48 | 0.237 | 0.179 | 0.184 | 0.493 | 0.453 | 0.491 | 0.499 | 0.488
9 | NCI-H1944 | 0.235 | 0.251 | 0.181 | 0.214 | 0.703 | 0.478 | 0.676 | 0.583 | 0.613 | 0.819 | 0.38 | 0.241 | 0.249 | 0.306 | 0.316 | 0.348 | 0.324 | 0.327
10 | NCI-H322M | 0.532 | 0.507 | 0.344 | 0.338 | 0.63 | 0.59 | 0.56 | 0.599 | 0.621 | 0.551 | 0.467 | 0.366 | 0.414 | 0.531 | 0.443 | 0.45 | 0.49 | 0.433
11 | HCC-44 | 0.657 | 0.438 | 0.221 | 0.404 | 0.672 | 0.695 | 0.681 | 0.691 | 0.603 | 0.677 | 0.305 | 0.168 | 0.249 | 0.98 | 1.01 | 0.975 | 1.01 | 1.01
12 | HCC-827 | 0.878 | 0.59 | 0.548 | 0.388 | 0.232 |  | 0.257 | 0.267 | 0.243 | 0.599 | 0.302 | 0.241 | 0.258 | 0.49 |  | 0.471 | 0.49 | 0.545
13 | SW 1573 | 0.435 | 0.37 | 0.173 | 0.155 | 0.866 | 0.807 | 0.766 | 0.834 | 0.791 | 0.627 | 0.534 | 0.2 | 0.178 | 0.373 | 0.392 | 0.345 | 0.409 | 0.389
14 | NCI-H23 | 0.397 | 0.442 | 0.256 | 0.258 | 0.632 | 0.517 | 0.512 |  | 0.497 | 0.607 | 0.339 | 0.248 | 0.281 | 0.463 | 0.576 | 0.406 |  | 0.413
15 | EMC-BAC-2 | 0.37 | 0.373 | 0.234 | 0.223 | 0.453 | 0.406 | 0.46 | 0.419 | 0.439 | 0.56 | 0.267 | 0.2 | 0.242 | 0.519 | 0.485 | 0.528 | 0.511 | 0.505
16 | EPLC-272H | 0.212 | 0.305 | 0.188 | 0.195 | 0.359 | 0.357 | 0.345 | 0.376 | 0.313 | 0.943 | 0.241 | 0.202 | 0.287 | 0.299 | 0.356 | 0.352 | 0.274 | 0.349
17 | EKVX | 0.503 | 0.421 | 0.224 | 0.163 | 0.373 | 0.344 | 0.337 | 0.34 | 0.424 | 1.1 | 0.906 | 0.377 | 0.238 | 0.366 | 0.322 | 0.362 | 0.39 | 0.373
18 | HCC-15 | 0.186 | 0.286 | 0.137 | 0.167 | 0.222 | 0.221 | 0.236 | 0.237 | 0.194 | 0.458 | 0.204 | 0.152 | 0.158 | 0.748 | 0.625 | 0.722 | 0.699 | 0.738
